Data: ChEMBL document CHEMBL1201862, “PubChem BioAssay data set” (2004)
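How tested: cells in 96-well plates exposed to compound for 48 hours at five concentrations. The concentration for 50% growth inhibition is given as GI50.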 Activity calls are given as the source filed them. No stated cut-off is given here; in the data, active = GI50 up to about 1.1 µM and inactive = higher.

Tests used:
Assay in all cases: DTP human tumour cell line panel, 48 h
[1] = system: TK-10
[2] = system: SK-OV-3
[3] = system: LOX IMVI
[4] = system: SF-268
[5] = system: SW-620
[6] = system: M19-MEL
[7] = system: NCI-H460
[8] = system: SF-295
[9] = system: OVCAR-3
[10] = system: NCI-H522
[11] = system: DLD-1
[12] = system: OVCAR-8
[13] = system: SN12C
[14] = system: COLO 205
[15] = system: SNB-78
[16] = system: SF-539
[17] = system: UACC-62
[18] = system: DMS-114
[19] = system: A498
[20] = system: IGROV-1
[21] = system: LXFL 529
[22] = system: CCRF-CEM
[23] = system: UACC-257
[24] = system: KM-20L2
[25] = system: Malme-3M
[26] = system: 786-0
[27] = system: NCI-H226
[28] = system: SK-MEL-28
[29] = system: HOP-62
[30] = system: U-251
[31] = system: SR
[32] = system: OVCAR-4
[33] = system: HL-60
[34] = system: SK-MEL-5
[35] = system: MOLT-4
[36] = system: HCC 2998
[37] = system: HCT-15
[38] = system: KM12
[39] = system: RXF 393
[40] = system: SNB-75
[41] = system: EKVX
[42] = system: K562
[43] = system: M14
[44] = system: HOP-92
[45] = system: OVCAR-5
[46] = system: CAKI-1
[47] = system: ACHN
[48] = system: UO-31
[49] = system: NCI-H23
[50] = system: SNB-19
[51] = system: DMS-273
[52] = system: RPMI-8226
[53] = system: SK-MEL-2
[54] = system: A549
[55] = system: HT-29
[56] = system: MDA-MB-435
[57] = system: NCI/ADR-RES
[58] = system: MDA-MB-231
[59] = system: PC-3
[60] = system: HCT-116
[61] = system: MCF7
[62] = system: DU-145
[63] = system: MDA-N

## CCCCCCCCCCCCCB(O)O
[1]
  GI50: > 100 µM (inactive)
[2]
  GI50: > 100 µM (inactive)
[3]
  GI50: > 100 µM (inactive)
[4]
  GI50: 69.2 µM (inactive)
[5]
  GI50: 61.5 µM (inactive)
[6]
  GI50: > 100 µM (inactive)
[7]
  GI50: 85.5 µM (inactive)
[8]
  GI50: > 100 µM (inactive)
[9]
  GI50: 50.7 µM (inactive)
[10]
  GI50: 51.3 µM (inactive)
[11]
  GI50: 65.2 µM (inactive)
[12]
  GI50: > 100 µM (inactive)
[13]
  GI50: 66.2 µM (inactive)
[14]
  GI50: > 100 µM (inactive)
[15]
  GI50: 58.1 µM (inactive)
[16]
  GI50: > 100 µM (inactive)
[17]
  GI50: > 100 µM (inactive)
[18]
  GI50: 65.5 µM (inactive)
[19]
  GI50: 50.2 µM (inactive)
[20]
  GI50: > 100 µM (inactive)
[21]
  GI50: 81.8 µM (inactive)
[22]
  GI50: 57.8 µM (inactive)
[23]
  GI50: > 100 µM (inactive)
[24]
  GI50: 60.7 µM (inactive)
[25]
  GI50: > 100 µM (inactive)
[26]
  GI50: 95.5 µM (inactive)
[27]
  GI50: 96.2 µM (inactive)
[28]
  GI50: > 100 µM (inactive)
[29]
  GI50: > 100 µM (inactive)
[30]
  GI50: 60.4 µM (inactive)

## ClC1c2ccccc2C2(c3ccccc3)OOC1(c1ccccc1)O2 (stereo not given)
[31]
  GI50: 1.32 µM (inactive)
[1]
  GI50: 2.58 µM (inactive)
[32]
  GI50: 1.48 µM (inactive)
[33]
  GI50: 0.136 µM (active)
[34]
  GI50: 1.51 µM (inactive)
[35]
  GI50: 1.26 µM (inactive)
[36]
  GI50: 2.34 µM (inactive)
[37]
  GI50: 1.53 µM
[38]
  GI50: 1.77 µM (inactive)
[3]
  GI50: 0.352 µM (active)
[4]
  GI50: 1.97 µM (inactive)
[39]
  GI50: 1.4 µM (inactive)
[40]
  GI50: 1.77 µM (inactive)
[41]
  GI50: 2.18 µM (inactive)
[5]
  GI50: 1.39 µM (inactive)
[7]
  GI50: 1.64 µM (inactive)
[42]
  GI50: 1.38 µM (inactive)
[43]
  GI50: 1.45 µM (inactive)
[44]
  GI50: 0.39 µM (active)
[45]
  GI50: 4.24 µM (inactive)
[8]
  GI50: 2.62 µM (inactive)
[9]
  GI50: 1.77 µM (inactive)
[46]
  GI50: 2.37 µM (inactive)
[47]
  GI50: 1.55 µM (inactive)
[10]
  GI50: 0.243 µM (active)
[12]
  GI50: 2.03 µM (inactive)
[48]
  GI50: 1.69 µM (inactive)
[13]
  GI50: 1.48 µM (inactive)
[49]
  GI50: 1.8 µM (inactive)
[50]
  GI50: 1.7 µM (inactive)
[51]
  GI50: 1.52 µM (inactive)
[14]
  GI50: 1.87 µM (inactive)
[15]
  GI50: 1.45 µM (inactive)
[16]
  GI50: 2.31 µM (inactive)
[17]
  GI50: 1.87 µM (inactive)
[52]
  GI50: 0.716 µM (active)
[18]
  GI50: 0.267 µM (active)
[19]
  GI50: 2.39 µM (inactive)
[53]
  GI50: 1.94 µM (inactive)
[23]
  GI50: 1.99 µM (inactive)
[54]
  GI50: 1.86 µM (inactive)
[24]
  GI50: 1.68 µM (inactive)
[25]
  GI50: 2.63 µM (inactive)
[26]
  GI50: 1.61 µM (inactive)
[55]
  GI50: 2 µM (inactive)
[27]
  GI50: 2.32 µM (inactive)
[28]
  GI50: 1.95 µM (inactive)
[29]
  GI50: 10.3 µM (inactive)
[30]
  GI50: 1.9 µM (inactive)

## CC[C@]12C=CCN3CCC4(c5cc([C@@]6(C(=O)OC)CC7CN(CCc8c6[nH]c6ccccc86)C[C@@H]6CCC[C@H]76)c(OC)cc5N(C)C4[C@](O)(C(=O)OC)C1OC(C)=O)C32 (stereo not given in full)
[31]
  GI50: 0.0528 µM (active)
[32]
  GI50: 0.792 µM (active)
[33]
  GI50: 0.0585 µM (active)
[56]
  GI50: 0.00318 µM (active)
[2]
  GI50: 0.135 µM (active)
[34]
  GI50: 0.0324 µM (active)
[35]
  GI50: 0.155 µM (active)
[57]
  GI50: 1.15 µM (inactive)
[36]
  GI50: 0.29 µM (active)
[37]
  GI50: 0.443 µM
[38]
  GI50: 0.0713 µM (active)
[3]
  GI50: 0.141 µM (active)
[4]
  GI50: 0.127 µM (active)
[39]
  GI50: 0.21 µM (active)
[40]
  GI50: 0.0621 µM (active)
[41]
  GI50: 0.968 µM (active)
[5]
  GI50: 0.122 µM (active)
[6]
  GI50: 0.267 µM (active)
[7]
  GI50: 0.142 µM (active)
[42]
  GI50: 0.0513 µM (active)
[43]
  GI50: 0.157 µM (active)
[44]
  GI50: 0.526 µM (active)
[45]
  GI50: 0.741 µM (active)
[8]
  GI50: 0.0986 µM (active)
[9]
  GI50: 0.061 µM (active)
[46]
  GI50: 0.962 µM (active)
[47]
  GI50: 0.807 µM (active)
[10]
  GI50: 0.0188 µM (active)
[58]
  GI50: 0.0762 µM (active)
[11]
  GI50: 0.494 µM (active)
[12]
  GI50: 0.185 µM (active)
[48]
  GI50: 3.55 µM (inactive)
[13]
  GI50: 0.423 µM (active)
[49]
  GI50: 0.116 µM (active)
[50]
  GI50: 0.121 µM (active)
[14]
  GI50: 0.083 µM (active)
[15]
  GI50: 0.237 µM (active)
[59]
  GI50: 0.0336 µM (active)
[60]
  GI50: 0.108 µM (active)
[61]
  GI50: 0.0127 µM (active)
[62]
  GI50: 0.0165 µM (active)
[63]
  GI50: 0.00363 µM (active)
[16]
  GI50: 0.11 µM (active)
[17]
  GI50: 0.0728 µM (active)
[52]
  GI50: 0.141 µM (active)
[18]
  GI50: 0.225 µM (active)
[19]
  GI50: 0.251 µM (active)
[20]
  GI50: 0.218 µM (active)
[21]
  GI50: 0.257 µM (active)
[53]
  GI50: 0.179 µM (active)
[22]
  GI50: 0.122 µM (active)
[23]
  GI50: 0.167 µM (active)
[54]
  GI50: 0.231 µM (active)
[24]
  GI50: 0.126 µM (active)
[25]
  GI50: 0.104 µM (active)
[26]
  GI50: 0.316 µM (active)
[55]
  GI50: 0.103 µM (active)
[27]
  GI50: 0.201 µM (active)
[28]
  GI50: 0.168 µM (active)
[29]
  GI50: 0.106 µM (active)
[30]
  GI50: 0.106 µM (active)
